What is called IC50 is the point on the concentration scale where inhibition reaches its midpoint.

In one experiment the test system is Nrf2 pathway. Nature of the experiment: Nrf2 pathway induction in THP-1 cells with or without KEAP1 knockdown (quantitative PCR). It counts as cell-based, human. From the text:
THP-1 (human acute monocytic leukemia cells) cells were used to evaluate the effects of Compound 1 on the Nrf2 pathway in an inflammation environment. Nuclear factor (erythroid-derived 2)-like 2 (Nrf2) is an anti-inflammatory transcription factor. Under normal conditions, Nrf2 is kept in the cytoplasm by Kelch like-ECH associated protein 1 (KEAP1), which degrades Nrf2 by ubiquitination. Nrf2 can also move into the nucleus and back into the cytoplasm as a CRM1 cargo. In the current study, Nrf2 was protected from degradation by knocking down KEAP1 with siRNA. Then, KEAP1-depleted cells were treated with TNFα to induce inflammation, and the ability of Compound 1 to reverse inflammation by up-regulation of the Nrf2 pathway was tested.
THP-1 (acute monocytic leukemia) cells were plated in two 10 cm culture dishes (6*10^6 cells/dish) with RPMI-1640 medium (Lonza) supplemented with 10% heat-inactivated fetal bovine serum (Invitrogen) and 2-mercaptoethanol to a final concentration of 0.05 mM. Cells in one dish were transfected with 50 nM of KEAP1 siRNA (Life Technologies, Silencer Select, siRNA ID # s18982) using Lipofectamine RNAiMax (Invitrogen), whereas the cells in the other dish were transfected with 50 nM of control siRNA, Block-iT (Invitrogen). Transfected cells were left for 72 h and the KEAP1 knockdown efficiency was calculated with quantitative PCR using a probe against KEAP1.
Next, the cells from each of the dishes were divided equally into 4 wells in different 6-well plates. One of the wells from each of the plates was pre-treated with 1 μM of Compound 1 for 1 h, followed by 20 ng/mL TNFα for 24 h. The other wells were treated with either 1 μM Compound 1 or 20 ng/mL TNFα or neither for 24 h. Following the treatment, RNA was extracted from the cells using an RNA extraction kit (Qiagen). RNA samples from each treatment group were reverse transcribed and real-time PCR was performed on the corresponding cDNA sequences using probes against Nrf2 and two of its downstream genes, NQO1 and EPHX1. THP-1 cells were transfected with KEAP1 siRNA. 40% knockdown efficiency was achieved. The KEAP1 knockdown cells were treated with either 1 μM of Compound 1 or 20 ng/mL of TNFα or both together for 24 h.

The next experiment deals with NF-κB. In words: NF-κB transcriptional activity in TNFα-induced HeLa cells. It counts as cell-based. The settings on record: Homo sapiens, 1 h pre-treatment, then 4 h of 20 ng/mL TNFα, average of three experiments, read-out: IC50, inhibition of NF-κB transcriptional activity. The protocol:
The compounds were tested on HeLa (adenocarcinoma) cells to quantify their ability to inhibit NF-κB transcriptional activity. NF-κB activity was induced in HeLa cells by TNFα, and then the compounds were added to inhibit the induced NF-κB activity. Half maximal inhibitory concentrations (IC50) of several compounds, namely Compound 1, Compound 2 and Compound 12, were determined by dose response studies.
HeLa cells were plated in a 12-well plate (200,000 cells/well) and cultured in Eagle's Minimal Essential medium (EMEM) from Lonza supplemented with 10% heat-inactivated fetal bovine serum (Invitrogen) and 50 μg/mL penicillin/streptomycin (Invitrogen), and were left overnight to attach. Cells were pre-treated with serial diluted (started at 30 µM; 1:3 dilution) compounds for 1 h and then exposed to 20 ng/mL TNFα (Peprotech) for 4 h in serum free media. After the treatment, the cells were washed with PBS (Invitrogen), and lysed with RIPA buffer (Themo Scientific). The transcription activity of NF-κB in the cells was measured by Chemiluminescent Transcription Factor Assay kit (Thermo Scientific Catalog #89859), according to the manufacturer's instruction. Briefly, 1.5 mg/mL of RIPA lysed whole cell extract from each treatment were incubated in a 96-well plate bound with NF-κB biotinylated-consensus sequence. The active NF-κB transcription factor bound to the consensus sequence was incubated with NF-κB p65 primary antibody and then with a secondary HRP-conjugated antibody. A chemiluminescent substrate was added to the wells and the resulting signal was detected using a luminometer. Three separate experiments were analyzed for each concentration of the IC50 curves. XLFit model 205 was used to calculate IC50 curves.
Inhibition of NF-κB transcriptional activity was measured by serial dilutions of Compound 1, Compound 2 and Compound 12 after 1 h of compound pre-treatment followed by 4 h of 20 ng/mL TNFα exposure. Three independent experiments were scored for each concentration, with the average being presented here.

Setting [1] is: 1 μM Compound 1 + 20 ng/mL TNFα, 24 h, KEAP1 knockdown.
[2] abbreviates: 1 μM Compound 1 + 20 ng/mL TNFα, 24 h, without KEAP1 knockdown.

Where only a bound is given, the exact number is not on record here.

For `CC(C)(C)C(=O)NNC(=O)/C=C\n1cnc(-c2cc(C(F)(F)F)cc(C(F)(F)F)c2)n1` [Compound 1, (Z)-3-(3-(3,5-bis(trifluoromethyl)phenyl)-1H-1,2,4-triazol-1-yl)-N′-pivaloylacrylohydrazide], in the experiment on Nrf2 pathway (setting [1]), the “increase in NQO1 expression” value worked out at 4 fold and the “increase in Nrf2 expression compared to untreated cells” value is recorded as 2.5 fold. Further, in the experiment on Nrf2 pathway (setting [2]), the “increase in NQO1 expression” value is 2 fold, the “increase in Nrf2 mRNA levels” value is on record as not above 3 fold and the “induction of EPHX1 expression” value came out at 1.5 fold. For the same compound, in the experiment on Nrf2 pathway (1 μM Compound 1, presence or absence of TNFα), the “EPHX1 mRNA expression” value was “up-regulated the expression of EPHX1”. Also, the Nrf2 expression result in the experiment with Nrf2 pathway (1 μM Compound 1 alone, with or without KEAP1 knockdown) is “did not have any significant effect”. For the same compound, the Nrf2 signaling entry in the experiment on Nrf2 pathway (1 μM for 24 hrs in the presence of 20 ng/mL TNFα) is listed as “up-regulated Nrf2 signaling”. Besides, the IC50 in the experiment on NF-κB turned out to be 1590 nM.
`O=C(/C=C\n1cnc(-c2cc(C(F)(F)F)cc(C(F)(F)F)c2)n1)NNC(=O)CN1CCOCC1` [Compound 2, (Z)-3-(3-(3,5-bis(trifluoromethyl)phenyl)-1H-1,2,4-triazol-1-yl)-N′-(2-morpholinoacetyl)acrylohydrazide]: in the experiment with NF-κB, the IC50 was found to be 1220 nM.
